# Test results taken from patent US5304474A, “Hydrophobic peptide esters and amides” (Board of Regents, The University of Texas System, priority 1991, dated 1994).
# “Also recorded” adds a separate entry of the source.
# Legend:
# [1] = system: spleen cells; assay: Donor cell viability and subsets after treatment; format: cell-based, mice
# Description: Female, 8-16-wk-old, C57BL/6J (B6) and (C57BL/6J x DBA/2J)F1 mice (B6D2F1) were used as donors and recipients, respectively. For some experiments B6 donors were […] 70×10^6 cells/ml either in phosphate-buffered saline (PBS) or in Leu-Leu-OMe dissolved in PBS. Leu-Leu-OMe was synthesized from leucyl-leucine as previously described (10). […]
# Immediately after treatment with Leu-Leu-OMe, there was less than a 5% loss of viable donor cells.
# [2] = target: dipeptidyl peptidase I (DPPI) (Bos taurus, UniProt Q3ZCJ8); assay: Dipeptidyl peptidase I catalyzed lysis of human RBC; format: cell-based, bovine; conditions: FIG. 12, FIG. 13
# Sequence of dipeptidyl peptidase I (DPPI) (Q3ZCJ8 231-394 limits assumed): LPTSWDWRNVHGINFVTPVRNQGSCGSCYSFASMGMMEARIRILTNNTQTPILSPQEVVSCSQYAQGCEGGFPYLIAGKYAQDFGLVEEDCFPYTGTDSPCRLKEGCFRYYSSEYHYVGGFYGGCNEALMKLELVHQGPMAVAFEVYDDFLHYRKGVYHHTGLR
# Sequence of dipeptidyl peptidase I (DPPI) (Q3ZCJ8 25-134 limits assumed): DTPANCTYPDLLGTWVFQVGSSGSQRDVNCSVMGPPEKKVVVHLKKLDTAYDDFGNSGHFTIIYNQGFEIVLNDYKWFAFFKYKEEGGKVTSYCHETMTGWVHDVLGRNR
# Sequence of dipeptidyl peptidase I (DPPI) (Q3ZCJ8 395-463 limits assumed): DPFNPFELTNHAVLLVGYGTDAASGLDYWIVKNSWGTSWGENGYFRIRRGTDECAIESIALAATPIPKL
# Description: The following experiments were carried out to determine whether DPPI could generate a lytic product from Leu-Leu-OMe. In the experiment detailed in FIG. 12, ^51 Cr-labeled human erythrocytes (RBC) were incubated with varying concentrations of Leu-Leu-OMe alone or in the presence of purified bovine DPPI.
# In the experiments detailed in FIG. 13, ^51 Cr-labeled RBC's were exposed to various dipeptide esters or amides in the presence or absence of purified DPPI. […] The first observation is probably related to the inability of this enzyme to catalyze transpeptidation of peptide esters containing D-stereoisomers of amino acids. The latter observations are likely to be related to the fact that polymers of Ser-Leu or Leu-Tyr are not hydrophobic and therefore unlikely to enter and disrupt cell membranes.
# [3] = system: mononuclear phagocytes (MP); assay: Loss of MP from PBM, anti-MP (63D3) staining; format: cell-based, human; conditions: 15 minute exposure, 2 hours at 37° C. (FIG. 6)
# Description: (§1) In the experiments depicted in FIG. 6, freshly isolated PBM (2.5×10^6 /ml PBS and 1g/l glucose) were incubated at room temperature with varying concentrations of Leu-Leu-OMe. After a 15 minute exposure to this compound, the cells were washed, incubated for 2 hours at 37° C. and then assessed for the percentage of remaining viable cells which were stained by anti-MP or anti-NK monoclonal antibodies. Preincubation with greater than 25-50 micromola Leu-Leu-OMe led to loss of NK cells.
# (§2) Anti-MP monoclonal antibodies (63D3) and anti-NK monoclonal antibodies (leu 11b) were obtained from Becton Dickinson Monoclonal Center, lnc., Mountain View, Cal. The antibody staining and Fluorescence Activated Cell Sorter (FACS) procedure was that of Rosenberg et al. (1981) (J. Immunol. V 126, p 1473). Data are expressed as percent of antibody staining in control cells (mean±SEM, n=4).
# [4] = system: NK cells; assay: Loss of NK cells from PBM, anti-NK (leu 11b) staining; format: cell-based, human; conditions: 15 minute exposure, 2 hours at 37° C. (FIG. 6)
# Description: as §1, §2
# [5] = following 3-h incubation at 37° C.
structure (smiles),measurement,setting,value
"COC(=O)[C@H](CC(C)C)NC(=O)[C@@H](N)CC(C)C [Leu-Leu-OMe, L-leucyl-L-leucine methyl ester]",decrease in number of Lyt-2^+ spleen cells,[1]; [5],more than 65%
same,number of L3T4^+ cells,[1]; [5],no alteration in the number of L3T4^+ cells
same,loss of viable donor cells,[1]; immediately after treatment,< 5%
same,"RBC lysis in the presence of purified DPPI, in words",[2],RBC lysis occurs
same,"loss of MP from PBM, in words",[3],did not deplete MP from PBM; also recorded: higher concentrations of Leu-Leu-OMe caused loss of MP
same,preincubation concentration leading to loss of NK cells,[4],25 to 50 µM
